The values that follow come from publication PMC10698503, “Phosphatase specificity principles uncovered by MRBLE:Dephos and global substrate identification” (Molecular Systems Biology, 2023).

Experiment [1] concerns PP2A‐B55α. Description: Phosphate release assay (PiColorLock / malachite green) with PP2A-B55. The settings on record: B55 WT, peptide 120 μM, 80 ng phosphatase, 20 min 30°C. The class given is biochemical, human. The protocol:
PP2A‐B55α holoenzymes were purified from HeLa cells stably expressing FLAG‐tagged B55α as previously described (Kruse et al, [2020]).
In vitro phosphatase assays were performed with E. coli–expressed PP1γ or PP2A‐B55α purified from HeLa cell (ATCC, RRID CVCL_0030) extracts as described previously. […] The PiColorLock inorganic phosphate detection kit (abcam) was used to detect the amount of phosphate released from the phosphorylated peptides.

In experiment [2] the target is T1, PP1γ (Homo sapiens, UniProt P36873).
T1 construct: His; made in house; host or cells: E. coli BL21(DE3)
T1 sequence (P36873 whole entry): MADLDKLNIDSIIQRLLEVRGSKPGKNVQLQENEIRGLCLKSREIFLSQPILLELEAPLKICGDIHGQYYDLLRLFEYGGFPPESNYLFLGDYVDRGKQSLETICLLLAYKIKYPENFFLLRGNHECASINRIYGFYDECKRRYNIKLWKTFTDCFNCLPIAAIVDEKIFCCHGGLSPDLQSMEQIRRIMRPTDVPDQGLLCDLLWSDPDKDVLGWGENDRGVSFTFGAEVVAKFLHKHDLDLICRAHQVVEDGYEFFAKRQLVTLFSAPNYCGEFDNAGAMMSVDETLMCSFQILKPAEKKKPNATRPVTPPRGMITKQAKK
Description: MRBLE:Pep concentration-dependent PP1 binding to bead-bound RVxF peptides. The settings on record: bead-bound peptide, PP1 0-2,000 nM with anti-PP1 and Alexa 647 secondary antibody, 24 h at 4°C, 50 mM Tris pH 7.5, 150 mM NaCl, 0.1% TWEEN 20; median and SD across experimental replicates (n = 3); read-out: Kd, MRBLE-pep (Langmuir isotherm fit).
Description: After incubating bead‐bound peptide libraries with PP1, an unlabeled anti‐PP1 primary antibody, and an Alexa 647‐labeled secondary antibody, we washed beads and imaged again in both lanthanide and fluorescence channels to identify peptides and quantify the amount of PP1 bound (Fig 5A). Repeating these experiments over eight different PP1 concentrations enabled acquisition of concentration‐dependent binding curves; fitting the mean intensity of all beads with a given code at different concentrations of PP1γ and fitting to a Langmuir isotherm made it possible to quantify absolute affinities (Figs 5B and Appendix Fig S11).
PP1 concentration‐dependent binding to peptides on MRBLEs was done as described previously (Hein et al, [2021a]). In short, ~ 700 beads per code were mixed in and blocked in 700 μL PBS‐T with 5% BSA. PP1 (2 μM) was preincubated in binding buffer (50 mM Tris pH = 7.5, 150 mM NaCl, and 0.1% TWEEN 20) with 1 μM primary (a‐PPP1CC rabbit polyclonal, Bethyl A300‐906A) and 1 μM goat anti‐rabbit IgG Alexa Fluor 647 (Thermo Fischer, A‐21245). […]
We then computed the mean y max value across all of these peptides and refit concentration‐dependent binding curves for all peptide sequences to the Langmuir isotherm equation using this experimentally determined y max value for all peptide sequences and fitting only the K d term. […]

Experiment [3] has as its target T1, PP1γ. Description: ITC of RVxF model peptides with PP1γ. The settings on record: peptide ~450 μM titrated into PP1γ ~35 μM, 25°C, 50 mM sodium phosphate, 150 mM NaCl, 0.5 mM TCEP, pH 7.5, single-site model. The class given is binding.
Description: Prior to ITC experiments, both the protein and the peptides were extensively dialyzed against 50 mM sodium phosphate, 150 mM NaCl, and 0.5 mM TCEP, pH 7.5. All ITC experiments were performed on an Auto‐iTC200 instrument (Microcal, Malvern Instruments Ltd.) at 25°C. Both peptide and PP1γ concentrations were determined using a spectrometer by measuring the absorbance at 280 nm and applying values for the extinction coefficients computed from the corresponding sequences by the ProtParam program (http://web.expasy.org/protparam/). The peptides at approximately 450 μM concentration were loaded into the syringe and titrated into the calorimetric cell containing the PP1γ at ~ 35 μM. The reference cell was filled with distilled water. In all assays, the titration sequence consisted of a single 0.4 μl injection followed by 19 injections, 2 μl each, with 150 s spacing between injections to ensure that the thermal power returns to the baseline before the next injection. The stirring speed was 750 rpm. Control experiments with the peptides injected in the sample cell filled with buffer were carried out under the same experimental conditions. […] The heats per injection normalized per mole of injectant versus the molar ratio [peptide]/[PP1γ] were fitted to a single‐site model. Data were analyzed with MicroCal PEAQ‐ITC (version 1.1.0.1262) analysis software (Malvern Instruments Ltd.).
Experiment [4] deals with Venus-PP1. Description: Affinity purification (pulldown) of YFP/Venus-PP1 from mitotic cells, label-free LC-MS/MS. The format is binding, human. From the text:
(§1) We defined interactomes of PP1γ and B55α during mitosis using affinity purification of YFP‐tagged subunits and also proximity‐dependent ligation using miniTurbo to capture interactions at mitotic exit (Appendix Fig S8) (Branon et al, [2018]; Sears et al, [2019]). […] These identified proteins can constitute both regulators and substrates. […] To understand how these protein interactions might shape dephosphorylation, we first aimed at generating interactome networks and overlay regulated sites. We integrated interactomes and information from the STRING database (Szklarczyk et al, [2023]) with our regulated phosphorylation sites to generate a network of complexes and dephosphorylation sites (Fig 4C and Appendix Fig S9A). For PP1, we also integrated information on known and predicted RVxF motifs (Smith et al, [2019]). […] As an example, CASC5 (KNL1) could scaffold PP1 dephosphorylation of CENPC S261, a phosphorylation site in a nuclear localization sequence. In agreement with previous work, PP2A‐B55 regulated dephosphorylation of several nucleoporins at mitotic exit consistent with Nup153 and TPR being present in the interactomes (Cundell et al, [2016]).
(§2) PP1 and B55 cDNAs were cloned into modified versions of pcDNA5/FRT/TO (Invitrogen) to make N‐terminal fusions to YFP, BioID, or TurboID. Stable cell lines were generated into HeLa/FRT/TRex cells (kind gift from S. Taylor), and for YFP affinity, purification cells were synchronized with thymidine and released into nocodazole‐containing media to arrest them in mitosis. Cells were resuspended in lysis buffer (50 mM NaCl, 50 mM Tris 7,4, 1 mM EDTA, 0.1% NP40, 1 mM DTT, and protease inhibitor cocktail), and following sonication, the lysate was clarified by centrifugation. Cell lysate was incubated with GFP‐Trap beads (Chromotek) for 1 h, washed 3 × 1 ml with lysis buffer, and resuspended in SDS–PAGE loading buffer.
(§3) The Q‐Exactive Plus was set to perform an Orbitrap MS1 scan (R = 70 K; AGC target = 1e6) from 350 to 1,500 m/z, followed by HCD MS2 spectra on the 10 most abundant precursor ions detected by Orbitrap scanning (R = 17.5 K; AGC target = 1e5; max ion time = 50 ms) before repeating the cycle. Precursor ions were isolated for HCD by quadrupole isolation at width = 1 m/z and HCD fragmentation at 26 normalized collision energy (NCE). Charge state 2, 3, and 4 ions were selected for MS2. Precursor ions were added to a dynamic exclusion list ± 20 ppm for 15 s. […] Static modifications included carbamidomethylcysteine and variable modifications included oxidized methionine. […] Missing values were imputed from a normal distribution in Perseus to enable statistical analysis and visualization by volcano plot (Tyanova et al, [2016]). Statistical analysis was carried out in Perseus by two‐tailed Student's t‐test.

Experiment [5] relates to Venus-B55. Description: Affinity purification (pulldown) of YFP/Venus-B55 from mitotic cells, label-free LC-MS/MS. The format is binding, human.
Source text: as §1, §2, §3

Non-standard residues stand in square brackets, D forms with d. No end group written: not given here. pT = C[C@@H](OP(=O)(O)O)[C@H](N)C(=O)O

Regarding “INCENP WT: phosphorylated INCENP 53-67 peptide (T59), wild type (PELMPK[pT]PSQKNRRK; UniProt Q9NQS7 53-67, looked up, fragment)”, the “phosphate released from peptide by PP2A-B55 (in vitro dephosphorylation assay, Fig 3B)” value is reported as 0,806 in experiment [1] (50 mM Tris pH 7.4, 1 mM MnCl2, 150 mM NaCl, technical repeat 1); 0,858 in experiment [1] (technical repeat 2); 0,812 in experiment [1] (technical repeat 3).
The Kd is the equilibrium constant for the complex coming apart. With AKNSRVTFSEDDEII, in experiment [2], the dissociation constant Kd is 3400 ± 700 nM.
Regarding AKNSRVTFSEDDEIW, the affinity in experiment [3], expressed as Kd, was 190 ± 10 nM.
As for TOP2A_HUMAN, the “B55 or PP1?” value in experiment [4] (assignment of the co-purified protein as interactor of Venus-B55 and/or Venus-PP1 (both pulldowns)) is given as “B55/PP1”. In experiment [4] (enrichment in Venus-PP1 pulldown over Venus control, from 3 replicates each), the “log2 ratio [Venus-PP1/Venus]” value stood at 4.66. Besides, the “log2 IBAQ [Venus-PP1 1]” value in experiment [4] (pulldown of Venus-PP1 from mitotic cells, label-free LC-MS/MS, log2 IBAQ of co-purified protein, replicate 1) came to 19.15. In addition, in experiment [4] (pulldown of Venus-PP1 from mitotic cells, label-free LC-MS/MS, log2 IBAQ of co-purified protein, replicate 2), the “log2 IBAQ [Venus-PP1 2]” value turned out to be 19.33. The “log2 IBAQ [Venus-PP1 3]” value in experiment [4] (pulldown of Venus-PP1 from mitotic cells, label-free LC-MS/MS, log2 IBAQ of co-purified protein, replicate 3) amounted to 21.02. Besides, the “log2 ratio [Venus-B55/Venus]” value in experiment [5] (enrichment in Venus-B55 pulldown over Venus control, from 3 replicates each) amounted to 1.41. Further, the “log2 IBAQ [Venus-B55 1]” value in experiment [5] (pulldown of Venus-B55 from mitotic cells, label-free LC-MS/MS, log2 IBAQ of co-purified protein, replicate 1) is 16.03. The “log2 IBAQ [Venus-B55 2]” value in experiment [5] (pulldown of Venus-B55 from mitotic cells, label-free LC-MS/MS, log2 IBAQ of co-purified protein, replicate 2) is 16.59. The “log2 IBAQ [Venus-B55 3]” value in experiment [5] (pulldown of Venus-B55 from mitotic cells, label-free LC-MS/MS, log2 IBAQ of co-purified protein, replicate 3) worked out at 15.37.
